Results from patent US20240025857A1, “NEW CATECHOLAMINE PRODRUGS FOR USE IN THE TREATMENT OF PARKINSON'S DISEASE” (H. Lundbeck A/S, priority 2020, published 2024).
In brackets after ≈: the same amount, converted by molar mass. Counter-ions that a name gives are not always drawn.

Columns and labels:
[1] = Conversion to compound (I) in human liver S9; type: in vitro ADME; conditions: 1 μM, 4 mg/mL protein, 37° C., 0-60 minutes; compared to (Id-iia) and (Id-iib); FIG. 3
Method: The compounds (II), (III), (Id-iia), and (Id-iib) were incubated separately at 1 μM with rat and human liver S9 fraction suspended in 50 mM phosphate buffer at pH 7.4 with 5 mM MgCl2, 200 U/mL superoxide dismutase and 1 mM ascorbic acid. The human liver S9 (pool from 50 donors) and the rat liver S9 (from Wistar Han rats, pool of 240) fractions were purchased from SekisuiXenoTech, USA. The protein concentration in the incubation was 4 mg/mL. The incubations were performed in 96-well plates at 37° C. using an automated Hamilton liquid handling system with a total incubation volume of 150 microliter per well. The compounds were each incubated in triplicates in three wells per time point. The liver S9 suspensions were pre-incubated at 37° C. and the reactions started by addition of stock solutions of the test compounds to the incubation wells. The test compounds were dissolved in dimethyl sulfoxide (DMSO) and further diluted in water before spiking the stock solution into the incubation wells. […] Concentrations of compound (I) were determined after solid-phase extraction of the samples followed by LC-MS/MS analysis. The increase in concentration of compound (I) at the different time points was calculated by subtracting the concentration of compound (I) in the sample taken at time 0 from the concentrations of compound (I) in samples taken at the different time points. […]

[2] = type: in vitro ADME, Wistar Han rats; conditions: 1 μM, 4 mg/mL protein, 37° C., 0-60 minutes; FIG. 4
Method: The human liver S9 (pool from 50 donors) and the rat liver S9 (from Wistar Han rats, pool of 240) fractions were purchased from SekisuiXenoTech, USA. The protein concentration in the incubation was 4 mg/mL. The incubations were performed in 96-well plates at 37° C. using an automated Hamilton liquid handling system with a total incubation volume of 150 microliter per well. The compounds were each incubated in triplicates in three wells per time point. The liver S9 suspensions were pre-incubated at 37° C. and the reactions started by addition of stock solutions of the test compounds to the incubation wells. The test compounds were dissolved in dimethyl sulfoxide (DMSO) and further diluted in water before spiking the stock solution into the incubation wells. The final DMSO concentration in the incubations was 0.1%. The test compounds were incubated with liver S9 fractions for 0, 5, 10, 15, 30, 45 and 60 minutes. The incubations were terminated by transferring 100 microliter of the incubation samples to a 96-well plate containing 100 microliter of cold (approximately +4° C.) stop reagent containing 2% formic acid, 20 mg/mL ascorbic acid, 10 mg/mL citric acid and 3 mg/mL TCEP (tris(2-carboxyethyl)phosphine). After mixing, the samples were transferred to Nunc 1.0 mL cryo tubes and immediately frozen at −80° C. until analysis. Concentrations of compound (I) were determined after solid-phase extraction of the samples followed by LC-MS/MS analysis. The increase in concentration of compound (I) at the different time points was calculated by subtracting the concentration of compound (I) in the sample taken at time 0 from the concentrations of compound (I) in samples taken at the different time points.
Mass spectrometer (LC-MS/MS) Waters Acquity-Waters Xevo TQ-S. Analytical column Acquity BEH C18 50×2.1 mm, 1.7 micrometer. Mobile phase A: 0.2% formic acid in 20 mM NH4-Formate. Mobile phase B: 0.2% formic acid in acetonitrile. Gradient run from 5% B to 95% B in 3.5 minutes. Flow rate 0.6 mL/min. […]

[3] = PK experiments in rats: plasma compound (I) after oral dosing of prodrug; conditions: for conversion to compound (I) in vivo: oral dosing, rats, Example 2
Method: The tubes were inverted gently 6-8 times to ensure thorough mixing and then placed in wet ice. The collecting tube was placed in wet ice for up to 30 minutes until centrifugation (3000 G for 10 minutes at 4° C.). Once removed from the wet ice the centrifugation was initiated immediately. Immediately after end of centrifugation the samples were returned to wet ice. Two sub-samples of 130 microL plasma were transferred to each of two appropriately labelled cryo tubes containing 6.5 microL pre-cooled formic acid (20% in water v/v) The tube lid was immediately replaced, and the plasma solution was thoroughly mixed by inverting gently 6-8 times. The plasma samples were placed on water-ice as far as possible and stored frozen at nominally −70° C. within 60 minutes after sampling.
For experiments relating to compounds (II) and (III), the above protocol was used, with the exception that K3EDTA tubes were prepared with stabilizing aqueous solution consisting of 80 microL 100 mg/mL ascorbic acid and 40 microL inhibitor solution containing 100 mg/mL citric acid, 21 mg/mL D-saccharic acid 1,4 lactone and 29 mg/mL tris-(2-carboxyethyl)phosphine (TCEP).
Plasma samples were analyzed by solid phase extraction or direct protein precipitation followed by UPLC-MS/MS. MS detection using electrospray in the positive ion mode with monitoring of specific mass-to-charge transitions for compound (I) using internal standards for correcting the response. The concentration-time data was analyzed, using standard software using appropriate noncompartmental techniques to obtain estimates of the derived PK parameters.
Han Wistar rats were supplied by Charles River Laboratories, Sulzfeld, Germany. An artificial, automatically controlled, light and dark cycle of 12 hours was maintained. The rats received a standard laboratory diet from Brogaarden (Altromin 1324 pellets). The rats had unrestricted access to the diet.
Han Wistar rats were supplied by Charles River Laboratories, UK. An artificial, automatically controlled, light and dark cycle of 12 hours was maintained. The rats received a standard laboratory diet (Teklad 2014C Diet). The rats had unrestricted access to the diet.

[4] = physchem; type: physicochemical; conditions: aqueous buffer, thermodynamic from solid; 25 mM phosphate buffer pH 6, 24 hours rotation, saturated solution; read-out: Measured solubility at pH 6
Method: For compound (III), a sample was prepared with excess compound (III) to establish a saturated solution. 4.2 mg of compound (III) was transferred to a vial and 0.5 mL buffer (25 mM phosphate buffer, NaH2PO4/Na2HPO4, pH 6) was added. The sample was mixed by rotation for 24 hours. pH of the sample was measured at t=0 (prior to rotation) and at t=24 h (after 24 h of rotation). Subsequently, some of the sample was filtered with 0.22 micrometer polyvinylidene difluoride filter, first few drops discarded, and content of dissolved compound (III) was quantified by reverse phased HPLC (C18, 3.5 micrometer, 4.6×150 mm column) with eluent 20 mM ammonium buffer pH 2.4 with methanol, 80:20.
The remaining undissolved material was extracted, and air dried for approximately 20 minutes on a metal plate prior to analysis by X-ray powder diffractogram (XRPD). XRPD diffractograms were obtained on a PANalytical X'Pert PRO X-Ray Diffractometer using CuKa1 radiation (λ=1.5406 Å). The samples were measured in reflection mode in the 2θ-range 3-39.9° using an X'celerator detector.

[5] = male, Han Wistar, rat, in vivo, po
[6] = in man after oral dosing; extensive hepatic first-pass metabolism; cited from earlier work

## CCCN1CCC[C@@H]2Cc3c(ccc(OS(N)(=O)=O)c3O)C[C@H]21 [Compound (II), (4aR,10aR)-6-hydroxy-1-propyl-1,2,3,4,4a,5,10,10a-octahydrobenzo[g]quinolin-7-yl sulfamate]
[1]
  conversion to compound (I) in human liver S9 fraction: increased conversion to compound (I)
[2]
  conversion to compound (I) in rat liver S9: is converted to compound (I)
[3]
  conversion to compound (I) in vivo: converted to compound (I) in vivo

## CCCN1CCC[C@@H]2Cc3c(ccc(O)c3OS(N)(=O)=O)C[C@H]21 [Compound (III), (4aR,10aR)-7-hydroxy-1-propyl-1,2,3,4,4a,5,10,10a-octahydrobenzo[g]quinolin-6-yl sulfamate]
[1]
  conversion to compound (I) in human liver S9 fraction: increased conversion to compound (I)
[2]
  conversion to compound (I) in rat liver S9: is converted to compound (I)
[3]
  conversion to compound (I) in vivo: converted to compound (I) in vivo
[4]
  solubility at 24 h: 890 µg/mL (≈ 2610 µM)

## CCCN1CCC[C@@H]2CC3=C(CCCC3=O)C[C@H]21 [Compound (Ia)]
[5]
  AUC0-24: 13.6 ng·h/mL
  Cmax: 3.16 ng/mL
[5]; 0.3 mg/kg
  Tmax: 1.0 h
[5]; 24 h
  Exposure at 24 h: 48 ± 26 pg/mL

## CCCN1CCC[C@@H]2Cc3c(ccc(OS(=O)(=O)O)c3O)C[C@H]21 [Compound (Id-iib), (4aR,10aR)-6-hydroxy-1-propyl-1,2,3,4,4a,5,10,10a-octahydrobenzo[g]quinolin-7-yl hydrogen sulfate]
[2]
  conversion to compound (I) in rat liver S9: is converted to compound (I)
[4]
  solubility at 24 h: 37 µg/mL

## CCCN1CCC[C@@H]2Cc3c(ccc(OC(=O)C(C)(C)C)c3OC(=O)C(C)(C)C)C[C@H]21 [(Ic)]
[3]; oral administration of the prodrug, Wistar rats, in words
  plasma concentrations of compound (I): extremely low

## CCCc1cc2c(s1)CN[C@@H]1CCc3cc(OC(C)=O)c(OC(C)=O)cc3[C@@H]21 [Adrogolide]
[6]
  oral bioavailability: ~4%
